# Assay results as given in PMC12297533 (Scientific Reports, 2025).
# Like-named read-outs stand apart in the source and are kept apart here.
# Columns and labels:
# SH-SY5Y cells [1] = experiment: Determination of non-cytotoxic concentrations (WST-1 cell viability); assay type: cell-based; conditions: for Concentration showing cytotoxic effect on SH-SY5Y cells: tested 6.25-200 μM; for Non-cytotoxic concentration on SH-SY5Y cells: human
# Experimental: In this assay, the non-toxic concentrations of the tested samples to SH-SY5Y cells, along with catechin[58] and epicatechin-3-gallate[59] as a positive controls were used for the evaluation of the neuroprotective activity. […]. Cell viability was then assessed using a previously described method.
# SH-SY5Y cells [2] = experiment: Protection against Aβ1-42 induced-neurotoxicity; assay type: cell-based, human; conditions: only at 50 and 100 μM; Aβ1-42 25 μM
# Experimental: Finally, evaluation of cell viability was conducted.
# COX-1 = target: T1, COX-1 (Homo sapiens, UniProt P23219); experiment: In vitro COX-1 enzyme inhibitory assay (Cayman kit); assay type: biochemical; conditions: mean ± SD, n = 3
# T1 construct: purchased Cayman No.548
# Experimental: (§1) The ability to inhibit COX-1 and COX-2 enzymes was evaluated as previously reported[35],[36], using COX-1 Cayman human enzyme inhibitory assay kit (No.548, USA), COX-2 Cayman human enzyme inhibitory assay kit (No.547, USA) and Tecan Spark reader. […] The % Relative Inhibition was calculated as follows: [drawing 1]
# AChE = AChE (Homo sapiens, UniProt P22303); experiment: biochemical; conditions: for Inhibitory activity against AChE: concentrations up to 100 µM
# COX-2 = target: T2, COX-2 (Homo sapiens, UniProt P35354); experiment: In vitro COX-2 enzyme inhibitory assay (Cayman kit); assay type: biochemical; conditions: for IC50: mean ± SD, n = 3
# T2 construct: purchased Cayman No.547
# T2 sequence (P35354 18-604): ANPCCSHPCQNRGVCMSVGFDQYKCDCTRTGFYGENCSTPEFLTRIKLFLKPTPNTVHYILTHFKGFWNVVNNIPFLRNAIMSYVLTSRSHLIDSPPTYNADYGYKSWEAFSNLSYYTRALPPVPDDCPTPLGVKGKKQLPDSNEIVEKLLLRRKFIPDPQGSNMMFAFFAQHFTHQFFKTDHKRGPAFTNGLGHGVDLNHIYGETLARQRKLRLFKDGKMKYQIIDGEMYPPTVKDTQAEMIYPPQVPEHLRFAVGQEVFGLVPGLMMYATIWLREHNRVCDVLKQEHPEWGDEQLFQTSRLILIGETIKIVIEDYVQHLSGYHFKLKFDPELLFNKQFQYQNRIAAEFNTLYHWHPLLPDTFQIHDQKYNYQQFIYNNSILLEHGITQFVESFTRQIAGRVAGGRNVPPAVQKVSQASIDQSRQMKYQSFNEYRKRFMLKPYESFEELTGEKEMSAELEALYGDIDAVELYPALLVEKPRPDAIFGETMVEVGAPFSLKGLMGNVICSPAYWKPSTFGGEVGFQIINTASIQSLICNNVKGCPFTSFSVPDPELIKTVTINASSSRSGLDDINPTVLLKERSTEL
# Experimental: as §1
# SH-SY5Y cells [3] = experiment: Protection against H2O2 induced-neurotoxicity; assay type: cell-based, human; conditions: 150 μM H2O2; for Neuroprotective activity against H2O2: 6.25, 12.5, 25 μM
# Experimental: H2O2 concentration that caused 50% reduction in cell viability was evaluated as previously reported. Then the cultured cells (2 × 10^4 cells/well) were incubated with test samples (at non-cytotoxic concentrations: 6.25, 12.5, 25 μM) or catechin as a positive control (at non-cytotoxic concentrations: 6.25, 12.5, 25, 50, 100 μM). Lastly, the WST-1 reagent was used to evaluate the cell viability as reported.
# [4] = mean ± SD, n = 3, read-out: AChE inhibition IC50
# T1 sequence (P23219 24-599): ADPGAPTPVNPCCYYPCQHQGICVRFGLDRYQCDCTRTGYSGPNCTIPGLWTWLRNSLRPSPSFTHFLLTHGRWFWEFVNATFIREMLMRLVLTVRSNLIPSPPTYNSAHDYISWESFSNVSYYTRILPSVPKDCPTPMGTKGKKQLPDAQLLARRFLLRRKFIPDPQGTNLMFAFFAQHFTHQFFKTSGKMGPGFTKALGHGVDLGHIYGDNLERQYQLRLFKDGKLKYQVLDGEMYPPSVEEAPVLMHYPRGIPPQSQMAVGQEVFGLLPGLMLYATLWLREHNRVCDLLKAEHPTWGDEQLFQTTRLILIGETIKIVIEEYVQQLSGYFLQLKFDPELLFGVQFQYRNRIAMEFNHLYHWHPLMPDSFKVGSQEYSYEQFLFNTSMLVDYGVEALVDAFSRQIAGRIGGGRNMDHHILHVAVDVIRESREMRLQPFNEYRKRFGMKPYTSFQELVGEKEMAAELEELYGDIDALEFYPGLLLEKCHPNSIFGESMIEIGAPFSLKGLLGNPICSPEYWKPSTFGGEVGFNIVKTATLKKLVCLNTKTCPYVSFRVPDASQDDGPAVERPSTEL
# Sequence of AChE (P22303 32-614): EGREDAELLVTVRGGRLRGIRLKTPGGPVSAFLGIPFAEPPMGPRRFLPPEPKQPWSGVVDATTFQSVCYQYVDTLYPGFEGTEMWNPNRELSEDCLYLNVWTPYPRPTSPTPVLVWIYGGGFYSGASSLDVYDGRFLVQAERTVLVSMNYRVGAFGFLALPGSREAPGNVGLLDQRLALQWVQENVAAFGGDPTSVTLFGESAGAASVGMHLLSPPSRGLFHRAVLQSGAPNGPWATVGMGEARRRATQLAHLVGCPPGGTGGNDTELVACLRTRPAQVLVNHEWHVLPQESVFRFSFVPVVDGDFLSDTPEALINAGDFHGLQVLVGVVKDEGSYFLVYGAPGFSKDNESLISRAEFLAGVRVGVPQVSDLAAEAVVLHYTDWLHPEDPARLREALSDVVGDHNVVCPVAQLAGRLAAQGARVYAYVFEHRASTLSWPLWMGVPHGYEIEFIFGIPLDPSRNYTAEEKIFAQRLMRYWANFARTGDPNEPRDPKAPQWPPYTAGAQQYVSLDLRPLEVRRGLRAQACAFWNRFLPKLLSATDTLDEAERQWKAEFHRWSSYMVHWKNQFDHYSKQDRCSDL
Compound,Concentration showing cytotoxic effect on SH-SY5Y cells (SH-SY5Y cells [1]),Neuroprotection against Aβ1-42 (SH-SY5Y cells [2]),Non-cytotoxic concentration on SH-SY5Y cells (SH-SY5Y cells [1]),IC50 (COX-1),IC50 (AChE),Inhibitory activity against AChE (AChE),COX-2 selective index S.I = IC50 COX-1/IC50 COX-2 (COX-2),IC50 (COX-2),Neuroprotective effect against H2O2 (SH-SY5Y cells [3]; only at 50 and 100 μM),IC50 (AChE; [4]),Neuroprotective activity against H2O2 (SH-SY5Y cells [3]),inhibition at 100 µM (AChE; at 100 µM)
epicatechin-3-gallate,200 µM,exhibited neuroprotection,,,,,,,,,,
"CC(C)=CCCC(C)(O)C1CC=C(C)CC1 (stereo not drawn) [α-Bisabolol, (-)-α-bisabolol, reference compound]",,,≤ 25 µM,20.1 ± 1.19 µM,> 100 µM,no inhibitory activity,6.889,2.92 ± 0.13 µM,,,,
"O.Oc1cc(O)c2c(c1)O[C@H](c1ccc(O)c(O)c1)[C@@H](O)C2 [catechin, reference compound]",200 µM,,,,,,,,exhibited neuroprotective effects,,,
"CC(C)(O)C(O)CCC(C)(O)C1CC=C(CO)CC1 (stereo not drawn) [Metabolite 6, 10β,11,15-trihydroxy-α-bisabolol]",,,≤ 12.5 µM,67.8 ± 2.28 µM,,no inhibitory activity,12.58,5.39 ± 0.18 µM,,> 100 µM,,
"COC(=O)C1=CCC(C(C)CCC2OC2(C)C)CC1 (stereo not drawn) [Metabolite 5, 7-dehydroxy-10,11-epoxy-3-methylcarboxy-α-bisabolol]",,,,16.8 ± 1.04 µM,> 100 µM,no inhibitory activity,6.711,2.51 ± 0.09 µM,,,didn’t show any neuroprotective activity,
"CC(C)=CCC[C@](C)(O)[C@@H]1CC=C(C(=O)O)CC1 [Metabolite 3, Hamanasic acid A]",,,,28.1 ± 1.74 µM,,,4.362,6.45 ± 0.24 µM,,> 100 µM,didn’t show any neuroprotective activity,20%
"CC(C)=CCCC(C)(O)C1CCC(C)CC1 (stereo not drawn) [Metabolite 4, 2,3-dihydro-α-bisabolol]",,,,35.3 ± 2.18 µM,,no inhibitory activity,8.598,4.11 ± 0.15 µM,,> 100 µM,,
"CC1=CCC(C(C)(O)CCC(O)C(C)(C)O)CC1 (stereo not drawn) [Metabolite 2, 10β,11-dihydroxy-α-bisabolol]",,,,71 ± 4.4 µM,,,4.093,17.3 ± 0.66 µM,,12.9 µM,,
